The results in this text go back to patent US10688092B2, “Compositions and methods of using nintedanib for improving glaucoma surgery success” (Cloudbreak Therapeutics, LLC, priority 2016, dated 2020).

Test [1] deals with rabbit model of glaucoma filtration surgery. Description: Rabbit glaucoma filtration surgery model. In kind it is in vivo, New Zealand White rabbits. The source says: The rabbit glaucoma surgery model is used to illustrate use of the presently disclosed methods for improving the success of glaucoma filtration surgery. Specifically, an established rabbit model of glaucoma filtration surgery would be used to study the effects of nintedanib 0.2% solution on the wound-healing events after surgery. The surgical procedure is as described in Wong et al. (Wong et al. Invest Ophthalmol Vis Sci. 2003; 44(3):1097-1103). Briefly, a partial thickness 8-0 silk corneal traction suture is placed superiorly, and the eye pulled down. A fornix based conjunctival flap is raised, after which a blunt dissection of the subconjunctival space is performed of approximately 5 mm along the limbus and 8 mm posteriorly. A microvitreoretinal (MVR) blade is used to make a partial-thickness scleral incision 3 to 4 mm behind the limbus, and a scleral tunnel to the corneal stroma is fashioned. A 22-gauge, 25-mm intravenous cannula (Venflon 2; Beckton Dickinson, Oxford, UK) is passed through a scleral tunnel anteriorly until the cannula needle is visible in the clear cornea. Entry into the anterior chamber is made with a cannular needle, which is then withdrawn as the cannula is advanced to the mid-pupillary area. The cannula is trimmed and beveled at its scleral end so that it protrudes 1 mm from the insertion point, and a 10-0 nylon suture is placed to fix the tube to the scleral surface. The conjunctival incision is closed with two interrupted sutures and a central, mattress-type 10-0 nylon suture attached to a needle (B/V 100-4; Ethicon) to give a water-tight closure. One drop each of guttae chloramphenicol and Betnesol-N(Glaxo Wellcome, Uxbridge, UK) ointment is instilled at the end of surgery.
Twenty female New Zealand White rabbits (2-2.4 kg, 12-14 weeks old; Charles River) would be acclimatized for 5 days before the experiments start. Glaucoma surgery would be performed on the left eye as described. After surgery, the rabbits would be arranged into two groups and one group would be treated with vehicle and another with nintedanib 0.2% solution. Treatments would begin immediately after surgery and the treatment would be TID for 2 weeks. The survival of the bleb formed by the surgery and the intraocular pressure (IOP) would be followed for 28 days. Histological analysis of the scar tissue would be performed at the end of the study.

The subject of test [2] is patients with medically uncontrolled open-angle glaucoma scheduled for a primary trabeculectomy. Description: Clinical study of topical nintedanib 0.2% as adjunct therapy to trabeculectomy. The class given is in vivo, human. The source says: Topical nintedanib 0.2% as adjunct therapy to increase success of trabeculectomy in a clinical study. A randomized, double-masked, placebo-controlled, 12-month experimental trial to test the effects of topical nintedanib 0.2% on the success rate of trabeculectomy. The study design would be as described by Vandewalle et. al. (Vandewalle et. al. Br J Ophthalmol. 2014, January; 98(1):73-8).
Patients with medically uncontrolled open-angle glaucoma scheduled for a primary trabeculectomy would be enrolled and randomized to receive one drop TID of either nintedanib or placebo solutions. The treatment would start immediately after surgery and would last for a month. Approximately 150 patients would be enrolled in the study.
Surgeries would be performed under general or retrobulbar anaesthesia by experienced surgeons using a modified Moorfields technique. IOP would be measured by Goldmann applanation tonometry. Two measurements would be taken by masked observers and averaged to determine the mean IOP if two values were within 2 mm Hg. A third measurement would be taken if the difference between the first two determinations is >2 mm Hg.
Patients would be examined on day 1; at weeks 1, 2, and 4; and at months 3, 6, and 12 after trabeculectomy. […] The number of postoperative IOP-lowering medications, intra- and postoperative complications, and surgical interventions would also be recorded. […]

Turning to `COC(=O)c1ccc2c(c1)NC(=O)/C2=C(\Nc1ccc(N(C)C(=O)CN2CCN(C)CC2)cc1)c1ccccc1` [nintedanib, Methyl (3Z)-3-{[(4-{methyl[(4-methylpiperazin-1-yl)acetyl]amino}phenyl)amino] (phenyl)methylidene}-2-oxo-2,3-dihydro-1H-indole-6-carboxylate], the “bleb survival at end of study” value in test [1] (day 28, no bleb would survive in the vehicle group) is given as “most of the bleb would survive”. The “histological analysis of scar tissue at the surgical site” value in test [1] (end of study, compared with vehicle group) was “less scar tissue”. Moreover, the Surgery success outcome in test [1] (nintedanib 0.2% solution TID for 2 weeks after surgery, compared with vehicle group) is “significantly prolonged”. The “bleb survival (survival curve of the bleb after surgery, FIG. 2)” value in test [1] (nintedanib 0.2% solution TID for 2 weeks, followed for 28 days, compared with vehicle group) is reported as “substantially prolonged”. The “IOP during the follow up period after the surgery (FIG. 3)” value in test [1] (nintedanib 0.2% solution TID for 2 weeks, followed for 28 days, IOP increased gradually in vehicle group) is reported as “below 20 mm”. For the same molecule, the “IOP compared to baseline” value in test [2] (12-month visit, one drop TID for a month after surgery) is “effectively reduced”. In test [2] (vs the placebo group, differences statistically significant at time points after 6 months), the “absolute success rate of glaucoma surgery (FIG. 4)” value is recorded as “higher”.
